Results published in BindingDB's records for doi:10.1021/jm00051a006 (University of Alberta, 1995).

Experiment: Effective concentration in vitro against HIV-1-infected CEM cells relative to uninfected untreated controls
Compound CO[C@H]1N(C2CC(N=[N+]=[N-])C(CO)O2)C(=O)NC(=O)[C@]1(C)Br (stereo partly specified) has an EC50 of 3.27 nM. In the case of CC1(Cl)C(=O)NC(=O)N([C@H]2C[C@H](N=[N+]=[N-])[C@@H](CO)O2)C1N=[N+]=[N-] (stereo partly specified), the EC50 is reported as 1490 nM. Compound CO[C@H]1N([C@H]2C[C@H](N=[N+]=[N-])[C@@H](CO)O2)C(=O)NC(=O)C1(C)Cl (stereo partly specified) has an EC50 of 5790 nM. For CC(C)O[C@H]1N(C2CC(N=[N+]=[N-])C(CO)O2)C(=O)NC(=O)[C@]1(C)Br (stereo partly specified), the EC50 was 5720 nM. CC1(Br)C(=O)NC(=O)N([C@H]2C[C@H](N=[N+]=[N-])[C@@H](CO)O2)C1N=[N+]=[N-] (stereo partly specified) showed an EC50 of 200000 nM. Work on CO[C@@H]1N(C2CC(N=[N+]=[N-])C(CO)O2)C(=O)NC(=O)[C@@]1(C)I (stereo partly specified) yielded an EC50 of 5.15 nM. For CCO[C@@H]1N(C2CC(N=[N+]=[N-])C(CO)O2)C(=O)NC(=O)[C@@]1(C)Br (stereo partly specified), the EC50 was 23.7 nM. Work on CO[C@@H]1N(C2CC(N=[N+]=[N-])C(CO)O2)C(=O)NC(=O)[C@@]1(C)Br (stereo partly specified) yielded an EC50 of 280 nM. With CO[C@H]1N(C2CC(N=[N+]=[N-])C(CO)O2)C(=O)NC(=O)[C@]1(C)I (stereo partly specified) the EC50 was 3.17 nM. In the case of CCCCCCCCO[C@H]1N(C2CC(N=[N+]=[N-])C(CO)O2)C(=O)NC(=O)[C@]1(C)Br (stereo partly specified), the EC50 is reported as 865 nM. In the case of CCO[C@H]1N(C2CC(N=[N+]=[N-])C(CO)O2)C(=O)NC(=O)[C@]1(C)Br (stereo partly specified), the EC50 is reported as 6.75 nM.
